Results published in ChEMBL document CHEMBL1142260, “Acylguanidine inhibitors of beta-secretase: optimization of the pyrrole ring substituents extending into the S1' substrate binding pocket” (Bioorg Med Chem Lett, 2008).

Assays:
Beta-secretase 1 [1] = molecular target: T1, Beta-secretase 1 (Homo sapiens, UniProt P56817); assay: Inhibition of BACE1
Cathepsin D = Cathepsin D (Homo sapiens, UniProt P07339); assay: Inhibition of cathepsin D
CHO = assay: Cytotoxicity against human CHO cells; assay type: functional; details: Cricetulus griseus, read-out: LD50 (the source's name)
[2] = Selectivity for BACE1 over cathepsin D
Beta-secretase 1 [3] = molecular target: T1, Beta-secretase 1; details: CHO
Beta-secretase 1 [4] = molecular target: T1, Beta-secretase 1; assay: Inhibition of BACE1 at 2 uM

T1 sequence (P56817 whole entry): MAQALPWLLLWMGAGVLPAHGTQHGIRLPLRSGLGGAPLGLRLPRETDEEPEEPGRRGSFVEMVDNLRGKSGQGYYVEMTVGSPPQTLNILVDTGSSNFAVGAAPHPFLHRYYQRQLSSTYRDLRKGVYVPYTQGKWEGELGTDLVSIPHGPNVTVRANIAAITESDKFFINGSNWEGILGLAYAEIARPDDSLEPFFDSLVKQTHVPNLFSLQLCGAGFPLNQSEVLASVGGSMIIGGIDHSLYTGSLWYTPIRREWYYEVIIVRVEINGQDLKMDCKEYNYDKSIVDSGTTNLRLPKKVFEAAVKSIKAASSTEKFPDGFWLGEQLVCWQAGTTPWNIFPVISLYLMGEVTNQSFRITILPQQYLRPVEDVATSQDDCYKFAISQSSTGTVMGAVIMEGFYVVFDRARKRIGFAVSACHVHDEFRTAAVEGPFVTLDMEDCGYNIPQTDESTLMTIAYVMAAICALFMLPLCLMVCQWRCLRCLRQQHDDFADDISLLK
Cathepsin D, sequence (P07339 65-162 limits assumed): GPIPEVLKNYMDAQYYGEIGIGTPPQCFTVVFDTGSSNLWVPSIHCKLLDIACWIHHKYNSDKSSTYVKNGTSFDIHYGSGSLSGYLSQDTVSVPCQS
Cathepsin D, sequence (P07339 169-412 limits assumed): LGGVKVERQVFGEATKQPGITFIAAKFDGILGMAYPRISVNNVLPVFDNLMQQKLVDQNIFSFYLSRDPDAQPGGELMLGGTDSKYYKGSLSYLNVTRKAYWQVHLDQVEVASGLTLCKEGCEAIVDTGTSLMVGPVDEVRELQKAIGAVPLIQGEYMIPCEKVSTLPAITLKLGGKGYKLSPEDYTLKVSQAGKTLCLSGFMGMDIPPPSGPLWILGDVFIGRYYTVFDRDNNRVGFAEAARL

IC50 (Beta-secretase 1 [1])	IC50 (Cathepsin D)	inhibition (Beta-secretase 1 [4])	SMILES	CC50 (CHO)	Ratio IC50 [2]	ED50 (Beta-secretase 1 [3])
1.71 µM	> 25 µM		N=C(NCCCn1ccnc1)NC(=O)Cn1c(-c2ccccc2)ccc1C12CC3CC(CC(C3)C1)C2			
		43%	N/C(=N\C(=O)Cn1c(-c2ccccc2)ccc1-c1ccccc1)NCc1ccc(F)c(F)c1F			
0.203 µM			CCCOc1ccc(-c2ccc(-c3ccccc3Cl)n2CC(=O)/N=C(/N)NCC(C)(C)CO)cc1		15	5.27 µM
0.321 µM			CCCOc1ccc(-c2ccc(-c3ccccc3Cl)n2CC(=O)/N=C(/N)NCCCSC)cc1		3.9	1.23 µM
0.651 µM			CCCOc1ccc(-c2ccc(-c3ccccc3Cl)n2CC(=O)/N=C(/N)NCc2ccc(O)c(OC)c2)cc1		1	5.45 µM
0.125 µM			CCCOc1ccc(-c2ccc(-c3ccccc3Cl)n2CC(=O)/N=C(/N)N[C@H]2CC[C@H](O)CC2)cc1		110	1.28 µM
0.278 µM			CCCOc1ccc(-c2ccc(-c3ccccc3Cl)n2CC(=O)NC(=N)NCCC(=O)O)cc1			
0.172 µM			CCCOc1ccc(-c2ccc(-c3ccccc3Cl)n2CC(=O)NC(=N)NCCC(N)=O)cc1			
	0.599 µM		N=C(NCCc1ccsc1)NC(=O)Cn1c(-c2ccccc2)ccc1C12CC3CC(CC(C3)C1)C2			
0.744 µM	1.38 µM		N=C(NCc1cccc(N)c1)NC(=O)Cn1c(-c2ccccc2)ccc1C12CC3CC(CC(C3)C1)C2			
0.137 µM			CCCOc1ccc(-c2ccc(-c3ccccc3Cl)n2CC(=O)/N=C(/N)NCCCC(N)=O)cc1		70	4.14 µM
0.13 µM			CCCOc1ccc(-c2ccc(-c3ccccc3Cl)n2CC(=O)/N=C(/N)NCCCC(=O)O)cc1		45	
0.255 µM	4.25 µM		N#CCCCNC(=N)NC(=O)Cn1c(-c2ccccc2)ccc1C12CC3CC(CC(C3)C1)C2			
	0.144 µM		Cc1csc(CNC(=N)NC(=O)Cn2c(-c3ccccc3)ccc2C23CC4CC(CC(C4)C2)C3)n1			
0.255 µM	6.45 µM		N/C(=N\C(=O)Cn1c(-c2ccccc2)ccc1C12CC3CC(CC(C3)C1)C2)NCCCCO			
0.124 µM			CCCOc1ccc(-c2ccc(-c3ccccc3Cl)n2CC(=O)/N=C(/N)NCC(O)CO)cc1 (centres undefined)		81	5.27 µM

The remaining lines, values behind:

SMILES	IC50 (Beta-secretase 1 [1])	IC50 (Cathepsin D)	inhibition (Beta-secretase 1 [4])	CC50 (CHO)	Ratio IC50 [2]	ED50 (Beta-secretase 1 [3])
N/C(=N/C(=O)Cn1c(-c2ccccc2)ccc1C12CC3CC(CC(C3)C1)C2)NCCCn1ccnc1				45 µM	> 15	9.16 µM
N=C(NCC(O)CO)NC(=O)Cn1c(-c2ccccc2)ccc1C12CC3CC(CC(C3)C1)C2 (centres undefined)	0.536 µM	73.5 µM				
CCCOc1ccc(-c2ccc(-c3ccccc3Cl)n2CC(=O)/N=C(/N)N[C@H]2CC[C@H](C(=O)O)CC2)cc1	0.078 µM				7.3	10.4 µM
N/C(=N/C(=O)Cn1c(-c2ccccc2)ccc1C12CC3CC(CC(C3)C1)C2)NCCc1ccsc1				2 µM		1.69 µM
N/C(=N/C(=O)Cn1c(-c2ccccc2)ccc1C12CC3CC(CC(C3)C1)C2)NCCO	0.68 µM	24.7 µM		25 µM	36	3.62 µM
C[C@H](O)CNC(=N)NC(=O)Cn1c(-c2ccccc2)ccc1C12CC3CC(CC(C3)C1)C2	0.942 µM	54.1 µM				
CCCOc1ccc(-c2ccc(-c3ccccc3Cl)n2CC(=O)NC(=N)NCc2ccco2)cc1	0.558 µM					
N/C(=N/C(=O)Cn1c(-c2ccccc2)ccc1C12CC3CC(CC(C3)C1)C2)NCc1cccc(N)c1				8 µM	1.9	4.81 µM
CCCOc1ccc(-c2ccc(-c3ccccc3Cl)n2CC(=O)/N=C(/N)NCc2ccco2)cc1					2.5	9.1 µM
N#CCCCN/C(N)=N\C(=O)Cn1c(-c2ccccc2)ccc1C12CC3CC(CC(C3)C1)C2				59 µM	17	4.4 µM
C[C@@H](O)CN/C(N)=N\C(=O)Cn1c(-c2ccccc2)ccc1C12CC3CC(CC(C3)C1)C2	0.437 µM	12.5 µM		79 µM	28	9.51 µM
Cc1nnc(CN/C(N)=N\C(=O)Cn2c(-c3ccccc3)ccc2C23CC4CC(CC(C4)C2)C3)o1		3.01 µM		22 µM		9.48 µM
CCCOc1ccc(-c2ccc(-c3ccccc3Cl)n2CC(=O)/N=C(/N)NCc2ccc(F)c(F)c2F)cc1					0.5	5.27 µM
CCCOc1ccc(-c2ccc(-c3ccccc3Cl)n2CC(=O)NC(=N)NCc2ccc(F)c(F)c2F)cc1	0.203 µM					
CCCOc1ccc(-c2ccc(-c3ccccc3Cl)n2CC(=O)/N=C(/N)NCCC2OCCO2)cc1	0.269 µM				13	1.34 µM
CCCOc1ccc(-c2ccc(-c3ccccc3Cl)n2CC(=O)/N=C(/N)NCCC(N)=O)cc1					55	

SMILES	IC50 (Beta-secretase 1 [1])	IC50 (Cathepsin D)	inhibition (Beta-secretase 1 [4])	CC50 (CHO)	Ratio IC50 [2]	ED50 (Beta-secretase 1 [3])
N/C(=N/C(=O)Cn1c(-c2ccccc2)ccc1C12CC3CC(CC(C3)C1)C2)N[C@H]1CC[C@H](O)CC1	0.283 µM			14 µM		1.44 µM
C[C@H](O)CN/C(N)=N\C(=O)Cn1c(-c2ccccc2)ccc1C12CC3CC(CC(C3)C1)C2				100 µM	57	17.8 µM
N#CCCN/C(N)=N\C(=O)Cn1c(-c2ccccc2)ccc1C12CC3CC(CC(C3)C1)C2	0.31 µM	12.2 µM		16 µM	39	3.44 µM
N/C(=N/C(=O)Cn1c(-c2ccccc2)ccc1C12CC3CC(CC(C3)C1)C2)NCC(O)CO (centres undefined)				88 µM	137	21.1 µM
CCCOc1ccc(-c2ccc(-c3ccccc3Cl)n2CC(=O)/N=C(/N)NCCC(=O)O)cc1					> 45	
CCCOc1ccc(-c2ccc(-c3ccccc3Cl)n2CC(=O)/N=C(/N)NCCCO)cc1					85	1.18 µM
N=C(NC(=O)Cn1c(-c2ccccc2)ccc1C12CC3CC(CC(C3)C1)C2)NC1CCCCC1	7.2 µM	54.2 µM				
N/C(=N/C(=O)Cn1c(-c2ccccc2)ccc1C12CC3CC(CC(C3)C1)C2)NC1CCCCC1				50 µM	7.5	18.7 µM
N/C(=N/C(=O)Cn1c(-c2ccccc2)ccc1C12CC3CC(CC(C3)C1)C2)NCCc1cccs1		0.476 µM		3 µM		2 µM
CCCOc1ccc(-c2ccc(-c3ccccc3Cl)n2CC(=O)NC(=N)NCCCO)cc1	0.121 µM					
NC(N)=NC(=O)Cn1c(-c2ccccc2)ccc1C12CC3CC(CC(C3)C1)C2		25 µM		> 25 µM	69	8.9 µM
N/C(=N/C(=O)Cn1c(-c2ccccc2)ccc1C12CC3CC(CC(C3)C1)C2)NCCCO		19.9 µM		35 µM	83	1.84 µM
CCCOc1ccc(-c2ccc(-c3ccccc3Cl)n2CC(=O)/N=C(/N)NCc2cccs2)cc1	0.752 µM				0.7	10.7 µM
N/C(=N/C(=O)Cn1c(-c2ccccc2)ccc1C12CC3CC(CC(C3)C1)C2)NCCCCO				31 µM	25	4.15 µM
CCCOc1ccc(-c2ccc(-c3ccccc3Cl)n2CC(=O)/N=C(/N)NCCCn2ccnc2)cc1	0.241 µM				30	3.1 µM
Cc1csc(CN/C(N)=N\C(=O)Cn2c(-c3ccccc3)ccc2C23CC4CC(CC(C4)C2)C3)n1				8 µM		3.97 µM
